Test results published in patent US6469055B2, “Compositions and methods for treatment of neurological disorders and neurodegenerative diseases” (Massachusetts Institute of Technology, priority 1996, dated 2002).
“Also recorded” adds a separate entry of the source.

Columns and labels:
secreted APP (APPs) = test: APPs secretion into the media of cultured cortical astrocytes, Western blot; assay type: cell-based, rat; settings: for secretion of soluble APPs: aspirin or resveratrol, nano- or micromolar range, cultured astrocytes or neurons
Experimental: Astrocytes are isolated from cortices from postnatal rats. […] Media are changed twice weekly.
To detect secreted APP, culture media was collected after drug treatments and phenylmethylsulfonyl fluoride was added to a final concentration of 2 mM. The media samples were then applied to Sephadex PD-10 desalting columns (Pharmacia) and eluted with distilled water. Column eluates were frozen and dried by vacuum centrifugation. The lyophilized proteins were reconstituted in 25 μL water followed by 25 μL of 2X Laemmli gel loading buffer, and boiled for 5 min.
(§1) Assays of PI hydrolysis are conducted as previously reported. Also, measurements of APPs are conducted as previously reported.

cellular cAMP levels = test: cAMP assay in cultured astrocytes; assay type: cell-based, rat
Experimental: In brief, after aspirating the medium and rinsing twice with 1 ml ice cold PBS, the cells were scraped in 0.8 ml ice cold ethanol and sonicated. […] After resuspension in 120 μl Tris/EDTA buffer, two duplicate samples of 50 μl each were mixed with the binding protein, [8-^3H] adenosine 3′, 5′-cyclic phosphate tracer and incubated at 2-4° C. for 2 h. A charcoal suspension (100 μl) was added to the samples before centrifugation and 200 μl of the supernatant were removed for. scintillation counting. The amount of cyclic AMP (pmol/mg protein) was estimated by comparing to known standards, and normalized to the amounts of whole cell protein as determined by the bicinchoninic acid assay (Sigma).

[1] = tested on: glial fibrillary acidic protein (GFAP); test: GFAP protein in cultured astrocytes, Western blot; assay type: cell-based, rat; settings: PG E2 treatment
Experimental: To detect cell-associated protein (APP or GFAP), astrocytes from 35 mm dishes are scraped in lysis buffer (60 mM Tris/HCl, 4% SDS, 20% glycerol, 1 mM dithiothreitol), ultrasonicated and boiled for 5 min. […] Bromphenol blue (0.1%) is added to each sample and equal amounts of protein (˜75 mg/lane) are loaded on 10% SDS-polyacrylamide gels.
(§2) The amount of media or cell protein loaded for sodium dodecyl sulfate-polyacrylamide gel electrophoresis (10-20% SDS PAGE; Bio-Rad) was normalized for the amount of protein per sample. […] After 2×10 min rinses in TBST, the membranes were incubated in TBST containing an appropriate antibody. Monoclonal antibodies 22C11 and GFAP (both from Boehringer-Mannheim) were used to detect the N-terminus of APP and glial fibrillary acidic protein respectively; antisera R37 and R98 (gifts of Dr. F. Kametani, Tokyo Institute of Psychiatry) were used to detected the C-terminus and KPI motifs of APP respectively; antiserum C8 (gift of Dr. D. Selkoe, Women's Hospital, Harvard Medical School, Cambridge, Mass.) was used to detect the C-terminus of APP.
After an overnight incubation, membranes were rinsed in TBST before being treated for 1h with a peroxidase-linked secondary antibody. After several rinses in TBST, protein bands were visualized on Kodak X-AR films by an enhanced chemiluminescence method (Amersham). […]

APP holoprotein [2] = test: Cell-associated APP (APP holoprotein), Western blot, cultured cortical astrocytes; settings: for effect on cell-associated APP (APP holoprotein): PMA 5 μM or DNF 100 μM; for levels of cellular and amyloidogenic APP holoprotein: aspirin or resveratrol, 1 h, nano- or micromolar range, cultured astrocytes or neurons
Experimental: Astrocytes are isolated from cortices from postnatal rats. […] In brief, dissected cortices were dissociated by trypsinization and trituration through a flame-polished Pasteur pipette. Cells were plated onto poly-L-lysine coated 35- or 100 mm culture dishes at densities of about 10-25 cells/mm^2. […] Media are changed twice weekly. […] Pharmacological manipulations are performed in serum-free media on 7-14 DIV confluent astrocytes.
To detect cell-associated protein (APP or GFAP), astrocytes from 35 mm dishes are scraped in lysis buffer (60 mM Tris/HCl, 4% SDS, 20% glycerol, 1 mM dithiothreitol), ultrasonicated and boiled for 5 min. The total amount of cell protein per dish, estimated using the bicinchoninic acid assay, is not altered by pharmacological treatments. Bromphenol blue (0.1%) is added to each sample and equal amounts of protein (˜75 mg/lane) are loaded on 10% SDS-polyacrylamide gels.
as §2
After an overnight incubation, membranes were rinsed in TBST before being treated for 1h with a peroxidase-linked secondary antibody. After several rinses in TBST, protein bands were visualized on Kodak X-AR films by an enhanced chemiluminescence method (Amersham). Optical densities of the protein bands were quantitated by laser scanning densitometry (LKB, Bromma, Sweden), and normalized to the densities of those bands generated under control conditions.

APP synthesis = APP synthesis (APP mRNA and holoprotein) in cultured cortical astrocytes; assay type: cell-based, rat
APP mRNA = test: APP mRNA, Northern blot, cultured cortical astrocytes
Experimental: Pharmacological manipulations are performed in serum-free media on 7-14 DIV confluent astrocytes.
Total RNA from astrocytes grown on 100 mm dishes is extracted by the acid guanidium thiocyanate-phenol-chloroform method. […] In brief, the medium was aspirated and the cells were scraped in 1 mL of TRI Reagent. After incubation for 15 min at room temperature, 0.2 ml chloroform was added, mixed vigorously with TRI Reagent and the mixture was stored for another 15 min at room temperature. After centrifugation at 12,000 g for 15 min, 0.5 ml isopropanol was added to the aqueous phase of the mixture to precipitate RNA. The RNA pellet collected by centrifugation (12,000 g, 15 min at 4° C.) was washed with 70% ethanol. once and solubilized in an appropriate amount of Formazol (Molecular Research Center, Cincinnati, Ohio). […] RNA was blotted onto Hybond polyvinyl membranes by overnight capillary transfer and fixed onto the membranes by UV light illumination. […] Membranes were dried and exposed to Kodak X-ray film for 24-48 h with an Amersham enhancer sheet. The relative amounts of mRNA obtained by hybridization were estimated using densitometric analysis of autoradiographs. The levels of APP mRNA were normalized to the amounts of G3PDH mRNA and expressed as a ratio to the levels of untreated, control cells.

astrocytes = test: Process formation of cultured astrocytes; assay type: cell-based, rat
APP holoprotein [3] = test: Brain APP holoprotein in rats injected with p-chloroamphetamine (PCA) with or without aspirin; assay type: in vivo, rat; settings: for brain APP holoprotein relative to control levels: rats, injections of aspirin alone
Excerpt: Neuronal injury can stimulate prostaglandin production., and thereby stimulate APP overexpression. We injected rats with para-chloroamphetamine (PCA), a neurotoxin which causes a loss of serotoninergic terminals in the brain.

PI hydrolysis = PI hydrolysis in cultured astrocytes; assay type: cell-based, rat; settings: propranolol 50 μM with NE 50 μM
Experimental: as §1

[4] = propranolol 50 μM with NE 50 μM

SMILES: CCCCC[C@H](O)/C=C/[C@H]1[C@H](O)CC(=O)[C@@H]1C/C=C\CCCC(=O)O [PG E2, prostaglandin E2]
- APP secreted in the media (secreted APP (APPs); PG E2 1, 10 or 100 μM, 24 h, mAb 22C11, R37 or C8): increased
- APP holoprotein (~130 kD) in the media (secreted APP (APPs); PG E2, 24 h, antisera C8): increased amounts
- cellular cAMP levels compared to untreated cells (cellular cAMP levels; 1 μg PG E2 (so in the source)): 27 fold
- cellular cAMP levels compared to untreated cells (cellular cAMP levels; 10 μg PG E2 (so in the source)): 106 fold
- cellular cAMP levels compared to untreated cells (cellular cAMP levels; 100 μg PG E2 (so in the source)): 227 fold
- cAMP production (cellular cAMP levels; PG E2 0.1 μM): did not stimulate
- cAMP versus PG E2 concentration (cellular cAMP levels; PG E2 1, 10 or 100 μM): Concentration-dependent elevations
- levels of GFAP [1]: increased
- effect on APP holoprotein (APP holoprotein [2]; PG E2 0.1 μM): did not significantly alter; also recorded: not 0.1 μM PG E2
- cellular APP holoprotein, of untreated control cells (APP holoprotein [2]; PG E2 1 μM, 24 h): 1.4 fold
- cellular APP holoprotein, of untreated control cells (APP holoprotein [2]; PG E2 10 μM, 24 h): 1.9 fold
- cellular APP holoprotein, of untreated control cells (APP holoprotein [2]; PG E2 100 μM, 24 h): 2.3 fold
- effect on APP holoprotein (APP holoprotein [2]; PG E2 1, 10 or 100 μM, 24 h): stimulated increases
- KPI-containing APP isoforms (APP holoprotein [2]; PG E2 treatment, antiserum R98): increases
- effect on APP synthesis, shorter treatment (APP synthesis; PG E2 10 μM, 6 or 12 h): did not reliably increase
- effect on APP mRNA (APP mRNA; PG E2 0.1 μM): did not significantly alter; also recorded: not 0.1 μM PG E2
- astrocytic APP mRNA relative to untreated cells (APP mRNA; PG E2 1, 10 or 100 μM, 24 h): significantly increased; also recorded: stimulated increases
- process formation in astrocytes (astrocytes): induced

SMILES: CCCCCCCCCCCCCC(=O)O[C@@H]1[C@@H](C)[C@@]2(O)[C@@H](C=C(CO)C[C@]3(O)C(=O)C(C)=C[C@@H]23)[C@@H]2C(C)(C)[C@]12OC(C)=O [PMA, phorbol 12-myristate 13-acetate]
- APPs secretion relative to untreated cells (secreted APP (APPs); PMA 5 μM or DNF 100 μM, 1 hour, mAb22C11): significantly increases
- APPs secretion, to that of untreated cells (secreted APP (APPs); PMA 5 μM, dexnorfenfluramine 100 μM): ~3.0 fold
- effect on cell-associated APP (APP holoprotein) (APP holoprotein [2]; 24 h): no effect
- effect on cell-associated APP (APP holoprotein) (APP holoprotein [2]; 24 h, listed as phorbol 12-myristate 13-acetate): does not increase
- effect on APP mRNA (APP mRNA; PMA 5 μM or dexnorfenfluramine 100 μM): does not increase

SMILES: CCN(CC)CC.Nc1ncnc2c1ncn2[C@@H]1O[C@@H]2COP(O)(=S)O[C@H]2[C@H]1O (stereo partly drawn) [Sp-cAMP triethylamine]
- cellular APP holoprotein compared to untreated cells (APP holoprotein [2]; Sp-cAMP triethylamine 50 μM, 24 h, antiserum R98): 1.6 fold
- cellular APP holoprotein compared to untreated cells (APP holoprotein [2]; Sp-cAMP triethylamine 100 μM, 24 h, antiserum R98): 1.9 fold
- cellular APP holoprotein compared to untreated cells (APP holoprotein [2]; Sp-cAMP triethylamine 150 μM, 24 h, antiserum R98): 2.2 fold
- effect on astrocytic APP holoprotein (APP holoprotein [2]; Sp-cAMP triethylamine in the absence of PG E2): sufficient to stimulate increases

SMILES: Cc1c(C(=O)c2cccc3ccccc23)c2cccc3c2n1[C@H](CN1CCOCC1)CO3 [Win55212]
- effect on APP synthesis (APP synthesis): decrease or inhibit

SMILES: CC(=O)Oc1ccccc1C(=O)O [aspirin]
- secretion of soluble APPs (secreted APP (APPs); 1 h): increase
- secretion of soluble APPs (secreted APP (APPs); 1 h, listed as Aspirin): promotes
- levels of cellular and amyloidogenic APP holoprotein (APP holoprotein [2]): decreased levels
- levels of cellular and amyloidogenic APP holoprotein (APP holoprotein [2]; listed as Aspirin): decreases
- APP holoprotein levels versus uninjected control rats / effect on the PCA-induced increase (APP holoprotein [3]; rats injected with both aspirin and PCA): did not differ; also recorded: attenuated
- brain APP holoprotein relative to control levels (APP holoprotein [3]): significant decrease
- brain APP holoprotein relative to control levels (APP holoprotein [3]; listed as Aspirin): small, but significant decrease

SMILES: CC(C)NCC(O)c1ccc(O)c(O)c1 (stereo not drawn) [isoproterenol]
- APP mRNA levels versus untreated cells (APP mRNA; 24 h, NE 50 or 100 μM, isoproterenol 50 μM, Northern blot): about 1.6 fold
- APP mRNA, of untreated cells (APP mRNA; NE 50 or 100 μM, isoproterenol 50 μM): 180%
- effect on APP mRNA levels above controls (APP mRNA; about 24 h, NE 50 or 100 μM, Iso 50 μM, 8Br-cAMP […] μM): mimicked

SMILES: CN1CCCC1c1cccnc1.O=C(O)C(O)C(O)C(=O)O.O=C(O)C(O)C(O)C(=O)O (stereo not drawn) [nicotine ditartrate]
- APP secreted in the media (secreted APP (APPs); nicotine ditartrate 1, 10 or 100 μM, 1 h): decreased
- astrocytic APP holoprotein relative to untreated cells (APP holoprotein [2]; nicotine ditartrate 1, 10 or 100 μM, 24 h, p<0.05): significantly increased

SMILES: CC(C)NCC(O)COc1cccc2ccccc12 (stereo not drawn) [propranolol]
- effect on the NE-induced increase in PI hydrolysis (PI hydrolysis): no effect
- effect on the NE-induced increase in cAMP formation (cellular cAMP levels; [4]): inhibits
- effect on basal APP protein levels (APP holoprotein [2]; propranolol 50 μM on its own): no significant effect
- effect on the NE-stimulated increase in APP holoprotein (APP holoprotein [2]; [4]): inhibited
- effect on APP synthesis (APP synthesis): decrease or inhibit
- effect on the NE- or isoproterenol-stimulated increase in APP mRNA (APP mRNA; propranolol 50 μM): to baseline levels; also recorded: significantly inhibited; also recorded: abolished

SMILES: Oc1ccc(C=Cc2cc(O)cc(O)c2)cc1 [resveratrol]
- secretion of soluble APPs (secreted APP (APPs); 1 h): increase; also recorded: promotes
- levels of cellular and amyloidogenic APP holoprotein (APP holoprotein [2]): decreased levels; also recorded: decreases
